What follows are compounds tested against T1, human DGAT2 (Homo sapiens, UniProt Q96PD7) (assay: DGAT2 enzyme activity inhibition, Phospholipid FlashPlate SPA). Conditions: recombinant human DGAT2 membrane protein from Sf-21 cells; inhibition of [14C]-TG production; 37° C.
T1 construct: FLAG (DYKDDDDK); made in house; host or cells: Sf-21 insect cells (BacPAK baculovirus system); membrane fraction used
T1 sequence (Q96PD7 1-388): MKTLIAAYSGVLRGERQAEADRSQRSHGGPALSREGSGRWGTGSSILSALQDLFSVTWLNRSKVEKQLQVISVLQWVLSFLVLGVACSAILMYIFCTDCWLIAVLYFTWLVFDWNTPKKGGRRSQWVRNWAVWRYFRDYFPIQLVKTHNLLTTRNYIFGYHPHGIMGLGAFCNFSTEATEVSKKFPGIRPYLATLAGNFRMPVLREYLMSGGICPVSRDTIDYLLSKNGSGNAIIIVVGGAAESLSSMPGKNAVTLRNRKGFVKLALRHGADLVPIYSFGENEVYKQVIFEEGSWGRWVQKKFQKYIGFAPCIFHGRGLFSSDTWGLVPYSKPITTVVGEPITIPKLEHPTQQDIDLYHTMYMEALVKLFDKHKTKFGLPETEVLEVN
Assay type: biochemical
In short: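 Sf-21 membranes expressing recombinant human DGAT2 (2 μg) preincubated with compound (3 nM–10 μM, 1% DMSO) and 50 μM 1,2 sn-oleoyl glycerol, 20 min at 37 °C, then 1 μM [14C]oleoyl-CoA for 15 min. [14C]-TG counted by SPA; inhibition as % of untreated.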

IC50 | SMILES
890 nM | CCOc1ccccc1O[C@@H]1CCCN(c2nccc(Nc3cccc(-c4ccc(NCC(=O)O)cc4)n3)n2)C1 [Example 75, (R)-(4-(6-((2-(3-(2-ethoxyphenoxy)piperidin-1-yl)pyrimidin-4-yl)amino)pyridin-2-yl)phenyl)glycine]
170 nM | CCOc1ccccc1O[C@@H]1CCCN(c2cncc(Nc3cccc(Oc4ccc(C(C)(C)C(=O)O)cc4)n3)n2)C1 [Example 93, (R)-2-(4-((6-((6-(3-(2-ethoxyphenoxy)piperidin-1-yl)pyrazin-2-yl)amino)pyridin-2-yl)oxy)phenyl)-2-methylpropanoic Acid]
140 nM | CCOc1ccccc1O[C@@H]1CCCN(c2cncc(Nc3cccc(-c4ccc(CC(C)(C)C(=O)O)cc4)n3)n2)C1 [Example 72, (R)-3-(4-(6-((6-(3-(2-ethoxyphenoxy)piperidin-1-yl)pyrazin-2-yl)amino)pyridin-2-yl)phenyl)-2,2-dimethylpropanoic Acid]
1600 nM | CCOc1ccccc1O[C@@H]1CCCN(c2cncc(Nc3nccc(-c4cccc(C(C)(C)C(=O)O)c4)n3)n2)C1 [Example 141, (R)-2-(3-(2-((6-(3-(2-ethoxyphenoxy)piperidin-1-yl)pyrazin-2-yl)amino)pyrimidin-4-yl)phenyl)-2-methylpropanoic Acid]
250 nM | CCOc1ccccc1O[C@@H]1CCCN(c2cncc(Nc3ccnc(-c4cccc(CC(C)(C)C(=O)O)c4)n3)n2)C1 [Example 170, (R)-3-(3-(4-((6-(3-(2-ethoxyphenoxy)piperidin-1-yl)pyrazin-2-yl)amino)pyrimidin-2-yl)phenyl)-2,2-dimethylpropanoic Acid]
140 nM | CCOc1ccccc1O[C@@H]1CCCN(c2cncc(Nc3ccc(F)c(-c4cccc(CC(C)(C)C(=O)O)c4)n3)n2)C1 [Example 102, (R)-3-(3-(6-((6-(3-(2-ethoxyphenoxy)piperidin-1-yl)pyrazin-2-yl)amino)-3-fluoropyridin-2-yl)phenyl)-2,2-dimethylpropanoic Acid]
> 10000 nM | CCOc1ccccc1O[C@@H]1CCCN(c2cncc(Nc3ccc(CCC(=O)O)cn3)n2)C1 [Example 38, (R)-3-(6-((6-(3-(2-ethoxyphenoxy)piperidin-1-yl)pyrazin-2-yl)amino)pyridin-3-yl)propanoic Acid]
3100 nM | CCOc1ccccc1O[C@@H]1CCCN(c2cccc(Nc3nccc(-c4cccc(CC(C)(C)C(=O)O)c4)n3)n2)C1 [Example 148, (R)-3-(3-(2-((6-(3-(2-ethoxyphenoxy)piperidin-1-yl)pyridin-2-yl)amino)pyrimidin-4-yl)phenyl)-2,2-dimethylpropanoic Acid]
190 nM | CCOc1ccccc1O[C@@H]1CCCN(c2cncc(Nc3nccc(-c4ccc(NC(C)(C)C(=O)O)cc4)n3)n2)C1 [Example 161, (R)-2-((4-(2-((6-(3-(2-ethoxyphenoxy)piperidin-1-yl)pyrazin-2-yl)amino)pyrimidin-4-yl)phenyl)amino)-2-methylpropanoic Acid]
1100 nM | CCOc1ccccc1O[C@@H]1CCCN(c2cncc(Nc3ccn(-c4cccc(CC(C)(C)C(=O)O)c4)n3)n2)C1 [Example 69, (R)-3-(3-(3-((6-(3-(2-ethoxyphenoxy)piperidin-1-yl)pyrazin-2-yl)amino)-1H-pyrazol-1-yl)phenyl)-2,2-dimethylpropanoic Acid]
590 nM | CCOc1ccccc1O[C@@H]1CCCN(c2cncc(Nc3nccc(N4CCC[C@@H](C(=O)O)C4)n3)n2)C1 [Example 121, (R)-1-(2-((6-((R)-3-(2-ethoxyphenoxy)piperidin-1-yl)pyrazin-2-yl)amino)pyrimidin-4-yl)piperidine-3-carboxylic Acid]
> 10000 nM | CCOc1ccccc1O[C@@H]1CCCN(c2cncc(Nc3ccc(C(C)(C)C(=O)O)cn3)n2)C1 [Example 49]
570 nM | CCOc1ccccc1O[C@@H]1CCCN(c2cncc(Nc3cccc(OCc4ccc(C(=O)O)cc4)n3)n2)C1 [Example 99, (R)-4-(((6-((6-(3-(2-ethoxyphenoxy)piperidin-1-yl)pyrazin-2-yl)amino)pyridin-2-yl)oxy)methyl)benzoic Acid]
220 nM | CCOc1ccccc1O[C@@H]1CCCN(c2cncc(Nc3cccc(-c4cccc(C(C)(C)C(=O)O)c4)n3)n2)C1 [Example 60, (R)-2-(3-(6-((6-(3-(2-ethoxyphenoxy)piperidin-1-yl)pyrazin-2-yl)amino)pyridin-2-yl)phenyl)-2-methylpropanoic Acid]
810 nM | CCOc1cccnc1O[C@@H]1CCCN(c2cncc(Nc3nccc(-c4ccc(CC(=O)O)cc4)n3)n2)C1 [Example 152, (R)-2-(4-(2-((6-(3-((3-ethoxypyridin-2-yl)oxy)piperidin-1-yl)pyrazin-2-yl)amino)pyrimidin-4-yl)phenyl)acetic Acid]
800 nM | CCOc1ccccc1O[C@@H]1CCCN(c2cncc(Nc3nccc(N4CCC(C(C)(C)C(=O)O)CC4)n3)n2)C1 [Example 126, (R)-2-(1-(2-((6-(3-(2-ethoxyphenoxy)piperidin-1-yl)pyrazin-2-yl)amino)pyrimidin-4-yl)piperidin-4-yl)-2-methylpropanoic Acid]
490 nM | CCOc1ccccc1O[C@@H]1CCCN(c2cncc(Nc3ccnc(-c4ccc(OC(C)(C)C(=O)O)cc4)n3)n2)C1 [Example 178, (R)-2-(4-(4-((6-(3-(2-ethoxyphenoxy)piperidin-1-yl)pyrazin-2-yl)amino)pyrimidin-2-yl)phenoxy)-2-methylpropanoic Acid]
> 10000 nM | CCOc1ccccc1O[C@@H]1CCCN(c2cncc(Nc3ccc(/C=C/C(=O)O)cn3)n2)C1 [Example 37, (R,E)-3-(6-((6-(3-(2-ethoxyphenoxy)piperidin-1-yl)pyrazin-2-yl)amino)pyridin-3-yl)acrylic Acid]
300 nM | CCOc1cccnc1O[C@@H]1CCCN(c2cncc(Nc3nccc(O[C@H]4CC[C@H](C(=O)O)CC4)n3)n2)C1 [Example 136, (1R,4r)-4-((2-((6-((R)-3-((3-ethoxypyridin-2-yl)oxy)piperidin-1-yl)pyrazin-2-yl)amino)pyrimidin-4-yl)oxy)cyclohexane-1-carboxylic Acid]
> 10000 nM | CCOc1ccccc1O[C@@H]1CCCN(c2cncc(Nc3nccc(N4CCC[C@H]4C(=O)O)n3)n2)C1 [Example 117, (2-((6-((R)-3-(2-ethoxyphenoxy)piperidin-1-yl)pyrazin-2-yl)amino)pyrimidin-4-yl)-L-proline]
670 nM | CCOc1ccccc1O[C@@H]1CCCN(c2nc(Nc3cccc(-c4cccc(CC(C)(C)C(=O)O)c4)n3)ncc2C(F)(F)F)C1 [Example 71, (R)-3-(3-(6-((4-(3-(2-ethoxyphenoxy)piperidin-1-yl)-5-(trifluoromethyl)pyrimidin-2-yl)amino)pyridin-2-yl)phenyl)-2,2-dimethylpropanoic Acid]
> 10000 nM | CCOc1ccccc1O[C@@H]1CCCN(c2cncc(Nc3ccn(CC(C)(C)C(=O)O)n3)n2)C1 [Example 21, (R)-3-(3-((6-(3-(2-ethoxyphenoxy)piperidin-1-yl)pyrazin-2-yl)amino)-1H-pyrazol-1-yl)-2,2-dimethylpropanoic Acid]
> 10000 nM | CCOc1ccccc1O[C@@H]1CCCN(c2cncc(Nc3ncc(C(=O)O)cn3)n2)C1 [Example 114, (R)-2-((6-(3-(2-ethoxyphenoxy)piperidin-1-yl)pyrazin-2-yl)amino)pyrimidine-5-carboxylic Acid]
910 nM | CCOc1ccccc1O[C@@H]1CCCN(c2cncc(Nc3cccc(N4CCCC(C(=O)O)C4)n3)n2)C1 (stereo partly drawn) [Example 54, 1-(6-((6-((R)-3-(2-ethoxyphenoxy)piperidin-1-yl)pyrazin-2-yl)amino)pyridin-2-yl)piperidine-3-carboxylic Acid]
770 nM | CCOc1ccccc1O[C@@H]1CCCN(c2cncc(Nc3cc(-c4ccc(CC(C)(C)C(=O)O)cc4)ccn3)n2)C1 [Example 45, (R)-3-(4-(2-((6-(3-(2-ethoxyphenoxy)piperidin-1-yl)pyrazin-2-yl)amino)pyridin-4-yl)phenyl)-2,2-dimethylpropanoic Acid]
190 nM | CCOc1cccnc1O[C@@H]1CCCN(c2cncc(Nc3nc(-c4cccc(CC(C)(C)C(=O)O)c4)ccc3F)n2)C1 [Example 101, (R)-3-(3-(6-((6-(3-((3-ethoxypyridin-2-yl)oxy)piperidin-1-yl)pyrazin-2-yl)amino)-5-fluoropyridin-2-yl)phenyl)-2,2-dimethylpropanoic Acid]
340 nM | CCOc1ccccc1O[C@@H]1CCCN(c2cncc(Nc3nccc(C4CC5CC4CC5C(=O)O)n3)n2)C1 (stereo partly drawn) [Example 124, 5-(2-((6-((R)-3-(2-ethoxyphenoxy)piperidin-1-yl)pyrazin-2-yl)amino)pyrimidin-4-yl)bicyclo[2.2.1]heptane-2-carboxylic Acid]
510 nM | CCOc1ccccc1O[C@@H]1CCCN(c2cncc(Nc3cccc(N4CCC(C)(C(=O)O)C4)n3)n2)C1 (stereo partly drawn) [Example 53, 1-(6-((6-((R)-3-(2-ethoxyphenoxy)piperidin-1-yl)pyrazin-2-yl)amino)pyridin-2-yl)-3-methylpyrrolidine-3-carboxylic Acid]
2200 nM | CCOc1ccccc1O[C@@H]1CCCN(c2cncc(Nc3ccc(C)c(-c4cccc(CC(C)(C)C(=O)O)c4)n3)n2)C1 [Example 111, (R)-3-(3-(6-((6-(3-(2-ethoxyphenoxy)piperidin-1-yl)pyrazin-2-yl)amino)-3-methylpyridin-2-yl)phenyl)-2,2-dimethylpropanoic Acid]

— patent US12630528B2, “Amino aryl derivative useful as diacylglycerol acyltransferase 2 inhibitor and use thereof” (LG CHEM, LTD., priority 2019, dated 2026)
